Results reported in patent US8709379B2, “Liposomal nanoparticles and other formulations of fenretinide for use in therapy and drug delivery” (Scitech Development, LLC, priority 2006, dated 2014).
≈ marks a conversion by molar mass, not a printed value. Where “and” joins values, the source holds several entries; their conditions need not be identical. Equal entries are not always repeated. Where two headings read alike, the source gives them in different places. Blank lines part the entries; values can stand above or below the molecule they belong to.

Columns and labels:
[1] = test system: EpiDerm-FT (full thickness living skin model)
Description: (§1) Using an analytical method measuring HPR by HPLC, and extraction procedures that yield >95% recovery of HPR from skin homogenates, EpiDerm Enhanced Barrier Function and EpiDerm Full-thickness skin specimens were removed from the Franz cells at the scheduled time, washed and halved as described below, and then homogenized and extracted in acetonitrile supplemented with 4 μg/mL BHT, 0.1% ethanol for quantitation of HPR by HPLC. Receiver medium specimens were collected and processed for HPR analysis by HPLC as described below. Injection volumes were 100 μl for extracts of skin and receiver medium and 50 μl for calibration standards. HPR quantitation was by back calculation to a standard curve constructed from clinical grade HPR received from the NCI. […] For the second permeation study of Retin-A, PD05057 and HPR formulation C5 2005 using enhanced barrier function epidermal models, ATRA in the extracts of treated skin was quantified against an ATRA standard curve and HPR against an HPR standard curve.
(§2) 18 reconstituted EpiDerm-Full Thickness specimens (EFT-306-AFAB-PRF, lot #7024-306-AFAB-PR) and 18 reconstituted EpiDerm Skin Model Enhanced Barrier Function (EPI-606-X-AFAB-PRF, lot #5093ofs) were received in good condition from Mattek Inc via overnight courier. EpiDerm-FT was maintained in culture by specialized medium changes every other day according to the manufacturer's instructions. EpiDerm-606X was stored refrigerated until use. EpiDerm-FT medium was free of phenol red, antibiotic and anti-fungal additives (EFT-300-MM-ASY-AFAB-PRF, lot #110405aab and EPI-100-X), so as to avoid creating artifactual toxicity or proinflammatory response. The particular skin specimens were all reconstituted with normal human epidermal keratinocytes and, for EpiDerm-FT, fibroblasts as well from a single donor foreskin.
(§3) Three topical products were tested in the in vitro skin model: Retin-A 0.1% (lot #5BM258, expiry 02/07), HPR in topical formulation C5 and another HPR formulation (PD05057). These drugs were tested blindly using the following codes: “A” for Retin-A, “B” for the C5 formulation of HPR, and “D” for the HPR formulation PD05057. Receiver medium was made by mixing pre-warmed, 37° C. EFT-306 medium 5:1 with human serum albumin (Sigma A6909, lot #055K8904, then lot #095K8906) to its physiological concentration of 50 mg/mL. To prevent oxidation of HPR during the collection period, BHT was added to the receiver medium to a final concentration of 10 μg/mL from a 40 mg/mL solution of BHT-NF (Spectrum Chemicals, B1196, lot #UM0659) in Ethanol USP (NDC 11098-503-05, lot #121310). Each sterile amber Franz cells was pre-warmed to 37° C. using a circulating water bath, the bottom chamber filled completely with receiver medium (˜10 ml), and then reconstituted skin specimens were removed from the cell culture wells and spread across the orifice epidermis upward, and clamped into place with a sterile top chamber. Pre-weighed aliquots of a target dose of 1.7 mg Retin-A prepared using an analytical balance were applied to the epidermal face, disbursed and messaged with the aid of the rubber tip of 1 ml BD tuberculin syringes and the start time recorded.

[2] = test system: EpiDerm-606X (epidermal model, enhanced barrier function); details: human, 0.1 %
Description: as §1, §2, §3

[3] = Delivered dose and retinoid flux, EpiDerm-FT in Franz cells; details: human, 1.7 mg Retin-A cream
Description: as §1, §2, §3

[4] = cited from earlier work
[5] = test system: EpiDerm-FT (full thickness living skin model); assay: Delivered dose and retinoid flux, EpiDerm-FT in Franz cells; details: EpiDerm-FT, collection period up to 5 hours
Description: as §1, §2, §3

[6] = Maximum (saturation) solubility of HPR in physiological aqueous systems with ethanol or human plasma proteins; assay type: physicochemical
Description: Although the compound is readily soluble in ethanol, this solvent solubility was not maintained when an ethanol solution of HPR was mixed into aqueous buffered systems, like physiological solutions, and in fact, even when the ethanol content of an aqueous solution of HPR was as high as 20%, the HPR solubility only reached approximately 1-2 μg/ml.
Purified human proteins were obtained from Sigma Chemical Company and dissolved in receiver medium, which was the same as the specialized medium from Mattek Inc used to maintain reconstituted skin systems or assay enhanced barrier permeability function. The individual proteins were dissolved to their respective plasma concentrations: high-density lipoprotein to 0.2 mg/mL, retinol binding protein to 0.05 mg/mL, serum albumin to 50 mg/mL (A6909, lot #055K8904), and acid α1-glycoprotein to 1 mg/mL (50646, lot #448248/1). HPR dissolved to 100 mg/mL in absolute ethanol supplemented with 4 mg/mL BHT was added to each protein solution to final theoretical concentration of 50 μg/mL and mixed by vortexing, the insoluble drug removed by centrifugation (12,000×g, 5 min, 23° C.), and the supernatant analyzed by HPLC to quantify HPR concentration.
A study of the HPR solubilizing properties of physiological concentrations of four human drug-binding plasma proteins that were expected to bind HPR under physiological conditions was conducted in receiver medium: high-density lipoprotein (HDL), retinol binding protein (RBP), albumin (ALB), and acid α-1-glycoprotein (AGP). Although certainly not the highest affinity binding, ALB solubilized more HPR per mL of receiver medium than any other plasma protein tested, driven primarily by its much higher physiological concentration than the other proteins. The solubilizing capacity of ALB was 7.5 μg HPR per ml of medium, which was 5-fold higher than that of 20 vol % ethanol. Using physiological concentrations of ALB in the 10 ml receiving medium chamber created a sink condition capable of binding 75 μg of HPR. Since the test surface area of the Franz cell was 1 cm^2 and the testing was conducted over 5 hours, this receiver medium was capable of supporting an average flux rate of 15 μg/cm^2/hour. It was concluded that this receiving medium should provide true sink conditions, considering the applied test dose of API from each formulation was just 1.7 μg/cm^2.

[7] = Clinical trial and pharmacokinetic study of oral HPR (corn oil soft gel capsules) in adult solid tumor patients; assay type: in vivo, human; details: for Cmax: po
Description: In an early clinical trial and pharmacokinetic study of oral HPR (corn oil, soft gel capsules) administered qdx7 to adult solid tumor patients at Wayne State University, dose escalation proceeded to 1600 mg/m^2 TID per day for seven days (˜90 capsules/day for one week).

[8] = Bioavailability of oral HPR in corn oil versus IV F23 in Sprague-Dawley rats; assay type: in vivo; details: plasma, rat, 1200 mg/m^2 in corn oil by gavage vs 444 mg/m^2 IV F23, AUC0-30, read-out: bioavailability of orally dosed HPR
Description: The appropriate doses of injectable HPR administered IV to achieve desired blood or tissue levels can be determined by those skilled in the art, using data from related studies of oral and intravenous HPR formulations in healthy rats. For example, the present inventors administered a single, non-toxic bolus dose of 444 mg/m^2 of the F23 formulation (described herein) that was prepared at a strength of 50 mg/mL HPR, via femoral vein catheters to a group of seven dual catheterized Sprague-Dawley rats. A second group of rats received a single, non-toxic dose of 1200 mg/m^2 HPR in corn oil via oral gavage after an overnight fast which was maintained up until 2 hours after dosing. […]
Mean blood plasma concentration-time curves of measured HPR following oral and IV administration are shown in (FIG. 2). From such results, the bioavailability of the oral HPR can be calculated, as an accepted measure of the proportion of orally administered drug that entered systemic circulation. […] Bioavailability of oral HPR administered in corn oil was calculated by comparing the AUC values achieved by oral and intravenous dosing using the equation:
[formula] […] Assuming this to be similar to bioavailability of oral HPR in humans, which cannot be measured directly until human patients are actually dosed with intravenous HPR, it is possible to estimate suitable doses of HPR lipid nanoparticles for clinical use.

[9] = test system: isolated epidermis (cadaveric); assay: Permeation into isolated cadaveric epidermis in Franz cells; assay type: in vitro ADME; details: receiver medium PBS with ethanol to 20 vol %
Description: Epidermal drug levels achieved by 3 hours were stable to 24 hours. The C5 formulation reached 11. μg/mg after single application. The products were tested as 0.1% strength creams. Thus, by increasing strength of the product to 0.5% and applying twice daily, it is possible to achieve target content levels in the skin. Moreover, as discussed below, the C5 formulation may be advantageous in reaching this level in epidermis alone.

[10] = Maximum (saturation) solubility of HPR in physiological aqueous systems with ethanol or human plasma proteins; assay type: physicochemical; details: 23 °C, kinetic from dmso stock, PBS pH 7.4
human tumor cell lines = details: for 72 hours in vitro; cited from earlier work
[11] = rat, 24 hours after dosing; cited from earlier work
SCLC patients = details: cited from earlier work
rodents = details: in vivo; cited from earlier work

detection in receiver medium [1]: No ATRA was detected
retinoid in Cells (skin specimen) ([1]; human, 0.2 h, 0.1 %): 0.031 µg
retinoid in receiver Medium ([1]; human, 0.2 h, 0.1 %): 0 µg
retinoid in Cells (skin specimen) ([1]; human, 2.1 h, 0.1 %): 0.042 µg
retinoid in receiver Medium ([1]; human, 2.1 h, 0.1 %): 0 µg
retinoid in Cells (skin specimen) ([1]; human, 3 h, 0.1 %): 0.056 µg
retinoid in receiver Medium ([1]; human, 3 h, 0.1 %): 0 µg
share of applied dose in skin specimen ([1]; human, 3 h, 0.1 %): 2.9%
retinoid in Cells (skin specimen) ([1]; human, 5 h, 0.1 %): 0.035 µg
retinoid in receiver Medium ([1]; human, 5 h, 0.1 %): 0 µg
retinoid in Cells (epidermis) ([2]; 1 h): 0.209 µg
retinoid in receiver Medium ([2]; 1 h): 0 µg
retinoid in Cells (epidermis) ([2]; 2 h): 0.106 µg
retinoid in receiver Medium ([2]; 2 h): 0 µg
retinoid in Cells (epidermis) ([2]; 3 h): 0.046 µg
retinoid in receiver Medium ([2]; 3 h): 0 µg
retinoid in Cells (epidermis) ([2]; 5 h): 0.032 µg
retinoid in receiver Medium ([2]; 5 h): 0 µg
half-life at 0.1 % [3]: > 2 h
SMILES: CC1=C(/C=C/C(C)=C/C=C/C(C)=C/C(=O)O)C(C)(C)CCC1 [ATRA, all-trans-retinoic acid]

SMILES: COc1ccc(NC(=O)\C=C(C)/C=C/C=C(C)\C=C\C2=C(C)CCCC2(C)C)cc1 [MPR]
plasma level of MPR metabolite ([4]; oral HPR 125 mg/kg/day): 60 ng/mL
plasma level of MPR metabolite ([4]; oral HPR 800 mg/kg/day): 60 ng/mL

SMILES: CC1=C(/C=C/C(C)=C/C=C/C(C)=C\C(=O)O)C(C)(C)CCC1 [Formulation 13-cis-RA, 13-cis-retinoic acid]
detection in receiver medium [5]: accumulated in the receiver medium

SMILES: CC1=C(/C=C/C(C)=C/C=C/C(C)=C/C(=O)Nc2ccc(O)cc2)C(C)(C)CCC1 [HPR, N-4-hydroxyphenylretinamide]
solubility ([6]; PBS with 20% ethanol, 23 °C, pH 7.4, aqueous with cosolvent or surfactant or cyclodextrin, kinetic from dmso stock, PBS pH 7.4, ethanol to 20% of volume, read-out: Maximum HPR Solubility): 1 to 2 µg/mL (≈ 2.55 to 5.11 µM)
increase of HPR solubility by ethanol ([6]; PBS with 20 vol % ethanol versus physiological saline): 200 fold
solubility ([6]; phosphate-buffered saline with 20 vol % ethanol, pH 7.4, aqueous with cosolvent or surfactant or cyclodextrin, kinetic from dmso stock, phosphate-buffered saline with ethanol to 20 vol %, read-out: HPR solubility): ~1.3 µg/mL (≈ 3.32 µM)
solubility ([6]; physiological saline / aqueous systems, saline or isotonic, physiological saline / aqueous systems, read-out: HPR solubility): ~0.005 µg/mL (≈ 0.0128 µM)
solubilizing capacity of ALB relative to 20 vol % ethanol ([6]; receiver medium with albumin): 5 fold
Cmax ([7]; human, plasma, after the first dose): 1000 ng/mL to 1300 ng/mL and 2.6 µM to 3.3 µM
Cmax ([7]; human, plasma, after the last dose): 2800 ng/mL to 4600 ng/mL and 7 µM to 12 µM
half-life ([7]; human, plasma, oral HPR, patients, read-out: terminal phase half-life): 8 to 14 h
ceiling of plasma HPR level ([7]; oral, regardless of schedule or dose above 1200 mg/m^2 BID): ≤ 5 µg/mL
bioavailability [8]: 8%
HPR in receiver medium [9]: not detected
solubility ([10]; human, PBS with albumin 50 g/L, pH 7.4, plasma or biological fluid, albumin 50 g/L): 7 to 8 µg/mL (≈ 17.9 to 20.4 µM)
solubility ([10]; human, PBS with high density lipoprotein 0.2 g/L, pH 7.4, plasma or biological fluid, high density lipoprotein 0.2 g/L): 1.5 to 3 µg/mL (≈ 3.83 to 7.66 µM)
solubility ([10]; human, PBS with retinol binding protein 0.05 g/L, pH 7.4, plasma or biological fluid, retinol binding protein 0.05 g/L): < 1 µg/mL
solubility ([10]; human, PBS with α1-acid-glycoprotein 1 g/L, pH 7.4, plasma or biological fluid, α1-acid-glycoprotein 1 g/L): 1 to 2 µg/mL (≈ 2.55 to 5.11 µM)
solubility ([10]; phosphate buffered saline, pH 7.4, aqueous buffer, additive none): < 1 µg/mL
plasma level of HPR ([4]; oral 25 mg/kg/day for 10 days, 3 hrs after last dose): 80 ng/mL
plasma level of HPR ([4]; oral 125 mg/kg/day for 10 days, 3 hrs after last dose): 260 ng/mL
plasma level of HPR ([4]; oral 800 mg/kg/day): 315 ng/mL
minimum HPR exposure level required to inhibit human tumor cell lines by at least 50-90% (human tumor cell lines): 10 µM
accumulation in pancreas over plasma [11]: 15-20 fold
maximum concentration of HPR in blood-plasma (±SD) (SCLC patients; 14 SCLC patients, 3-4 hours after 14th oral dose (twice/day, 7 days), in µM): 7.7±4.4 04
maximum plasma concentration (SCLC patients; SCLC patients, after final of 14 oral doses of 900 mg/m^2): approximately 7.7 μM
stable disease, share of advanced SCLC patients (SCLC patients; oral HPR): 30%
maximum tolerated dose (MTD) (rodents): 651 mg/m^2
maximum tolerated dose for parenteral HPR (rodents): ~650 mg/m^2 per day
well tolerated daily dose (rodents): ~600 mg/m^2
